Source: patent US20240199647A1, “ANTI-VIRAL COMPOUNDS” (Aligos Therapeutics, Inc., priority 2022, published 2024)
Read-outs that look alike come from different tables or passages of the source.

Legend:
[1] = test system: human beta-coronavirus OC43; assay: OC43 Coronavirus Assay in HeLa cells (antiviral, cytopathic effect, cell-titer-glo); format: cell-based; conditions: Betacoronavirus 1, OC43, HeLa, Table B, OC43 coronavirus in HeLa cells, read-out: EC50
[2] = test system: SARS-CoV-2 B.1.1.7 lineage; assay: microbe, parasite or virus in culture; format: cell-based; conditions: Severe acute respiratory syndrome coronavirus 2; Table C; SARS-CoV-2 B.1.1.7 in A549-dual_ACE2_TMPRSS2 cells, class symbols; read-out: A549-dual_ACE2_TMPRSS2 (EC50)
SARS-Cov-2 3CLpro = SARS-Cov-2 3CLpro (Severe acute respiratory syndrome coronavirus 2, UniProt P0DTD1); assay: biochemical; conditions: Table A, class symbols, read-out: SARS-Cov-2 (IC50)
in vitro = conditions: human
[3] = Cytotoxicity in HeLa cells without addition of OC43 virus (in parallel); conditions: human, HeLa cells, without OC43 virus

Row | Compound | EC50 ([1]; class symbols) [nM] | EC50 [2] [nM] | IC50 (SARS-Cov-2 3CLpro) [nM] | CC50 (in vitro) [nM] | CC50 at 6 days [3] [µM] | EC50 ([1]; cells given as a bound) [nM]
1 | CC(C)C[C@@H](C(=O)N1C[C@]2(C[C@H]1C#N)C(=O)Nc1ccccc1C2(F)F)N(C)C(=O)[C@H](C)NC(=O)C(F)(F)F [Example 43, (S)—N—((S)-1-((3R,5S)-5-cyano-4′,4′-difluoro-2′-oxo-1′,4′-dihydro-2′H-spiro[pyrrolidine-3,3′-quinolin]-1-yl)-4-methyl-1-oxopentan-2-yl)-N-methyl-2-(2,2,2-trifluoroacetamido)propanamide] | 1000 to 10000 | 100 to 1000 | 20 to 200 | > 1000 | > 10 | –
2 | CN(C(=O)[C@H](CC1CC1)NC(=O)C(F)(F)F)[C@@H](CC1CC1)C(=O)N1C[C@@]2(C[C@H]1C#N)Oc1cc(Cl)cc(F)c1NC2=O [Compound 59] | < 100 | < 100 | < 20 | > 1000 | > 10 | –
3 | CCN(C(=O)[C@H](C)NC(=O)C(F)(F)F)[C@@H](CC(C)C)C(=O)N1C[C@@]2(C[C@H]1C#N)Oc1cc(F)cc(F)c1NC2=O [Compound 106] | 100 to 1000 | 100 to 1000 | < 20 | > 1000 | > 10 | –
4 | C[C@H](OCc1ccccc1)[C@H](NC(=O)C(F)(F)F)C(=O)N(C)[C@@H](CC1CC1)C(=O)N1C[C@@]2(C[C@H]1C#N)Oc1cccnc1NC2=O [Compound 192] | 100 to 1000 | 100 to 1000 | 20 to 200 | > 1000 | > 10 | –
5 | CC(C)C[C@@H](C(=O)N1C[C@]2(CC(c3ccccc3)=NNC2=O)C[C@H]1C#N)N(C)C(=O)[C@H](C)NC(=O)C(F)(F)F [Example 29, (S)—N—((S)-1-((3S,5R)-3-cyano-6-oxo-9-phenyl-2,7,8-triazaspiro[4.5]dec-8-en-2-yl)-4-methyl-1-oxopentan-2-yl)-N-methyl-2-(2,2,2-trifluoroacetamido)propanamide] | 1000 to 10000 | 100 to 1000 | 20 to 200 | > 1000 | > 10 | –
6 | CN(C(=O)[C@H](CC1CC1)NC(=O)C(F)(F)F)[C@@H](CC(C)(C)F)C(=O)N1C[C@@]2(CC1C#N)Oc1cc(F)cc(F)c1NC2=O (stereo partly shown) [Compound 54] | < 100 | 100 to 1000 | < 20 | > 1000 | > 10 | –
7 | CN(C(=O)[C@H](CC1CC1)NC(=O)C(F)(F)F)[C@@H](CC1CC1)C(=O)N1C[C@@]2(C[C@H]1C#N)Oc1ccc(F)cc1NC2=O [Compound 15, (S)—N—((S)-1-((2R,5'S)-5′-cyano-6-fluoro-3-oxo-3,4-dihydrospiro[benzo[b][1,4]oxazine-2,3′-pyrrolidin]-1′-yl)-3-cyclopropyl-1-oxopropan-2-yl)-3-cyclopropyl-N-methyl-2-(2,2,2-trifluoroacetamido)propanamide] | < 100 | < 100 | < 20 | > 1000 | > 10 | –
8 | CCC1C[C@@]2(C[C@@H](C#N)N(C(=O)[C@H](CC(C)C)N(C)C(=O)[C@H](C)NC(=O)C(F)(F)F)C2)C(=O)N1 (stereo partly shown) [Compound 23] | 100 to 1000 | 100 to 1000 | < 20 | > 1000 | > 10 | –
9 | CN(C(=O)[C@H](COCc1ccccc1)NC(=O)C(F)(F)F)[C@@H](CC1CC1)C(=O)N1C[C@@]2(C[C@H]1C#N)Oc1cccnc1NC2=O [Compound 191] | < 100 | 100 to 1000 | < 20 | > 1000 | > 10 | –
10 | CN(C(=O)[C@H](CC1CC1)NC(=O)C(F)(F)F)[C@@H](CC1CC1)C(=O)N1C[C@@]2(C[C@H]1C#N)Oc1cc(C(=O)N3CCOCC3)ccc1NC2=O [Compound 143] | < 100 | 100 to 1000 | < 20 | > 1000 | > 10 | –
11 | CN(C(=O)[C@H](CC(C)(C)C)NC(=O)C(F)(F)F)[C@@H](CC1CC1)C(=O)N1C[C@@]2(C[C@H]1C#N)Oc1cc(F)cc(F)c1NC2=O [Compound 89] | < 100 | < 100 | < 20 | > 1000 | > 10 | –
12 | CN(C(=O)CCN1CCOCC1)[C@@H](CC1CC1)C(=O)N1C[C@@]2(C[C@H]1C#N)Oc1cc(F)cc(F)c1NC2=O [Compound 132] | 1000 to 10000 | 100 to 1000 | 20 to 200 | > 1000 | > 10 | –
13 | C[C@H](NC(=O)c1ccc(F)cc1)C(=O)N(C)[C@@H](CC1CC1)C(=O)N1C[C@@]2(C[C@H]1C#N)Oc1cccnc1NC2=O [Compound 195] | 100 to 1000 | 100 to 1000 | < 20 | > 1000 | > 10 | –
14 | CC(C)C[C@@H](C(=O)N1C[C@@]2(C[C@H]1C#N)N=C(c1ccccc1)NC2=O)N(C)C(=O)[C@H](C)NC(=O)C(F)(F)F [Compound 12, (2S)—N-[(2S)-1-[(5R,8S)-8-cyano-4-oxo-2-phenyl-1,3,7-triazaspiro[4.4]non-1-en-7-yl]-4-methyl-1-oxopentan-2-yl]-N-methyl-2-(2,2,2-trifluoroacetamido)propanamide] | 1000 to 10000 | 1000 to 10000 | 20 to 200 | > 1000 | > 10 | –
15 | CN(C(=O)[C@@H](NC(=O)C(F)(F)F)C1CC1)[C@@H](CC1CC1)C(=O)N1C[C@@]2(C[C@H]1C#N)Oc1cc(F)cc(F)c1NC2=O [Compound 194] | < 100 | < 100 | < 20 | > 1000 | > 10 | –
16 | CN(C(=O)[C@H](CC1CC1)NS(=O)(=O)C1CC1)[C@@H](CC1CC1)C(=O)N1C[C@@]2(C[C@H]1C#N)Oc1cccnc1NC2=O [Compound 178] | < 100 | 100 to 1000 | < 20 | > 1000 | > 10 | –
17 | COC(=O)N[C@@H](C)C(=O)N(C)[C@@H](CC(C)C)C(=O)N1C[C@@]2(C[C@H]1C#N)Oc1cc(F)cc(F)c1NC2=O [Compound 70] | – | 100 to 1000 | < 20 | > 1000 | > 10 | > 10000
18 | CC(C)C[C@@H](C(=O)N1C[C@@]2(C[C@H]1C#N)Oc1cc(F)cc(F)c1NC2=O)N(C)C(=O)[C@H](Cc1ccc(F)cc1)NC(=O)C(F)(F)F [Compound 69] | – | 100 to 1000 | < 20 | > 1000 | > 10 | > 10000
19 | CN(C(=O)[C@H](CC(C)(C)C)n1cc(C2CC2)nn1)[C@@H](CC1CC1)C(=O)N1C[C@@]2(C[C@H]1C#N)Oc1cc(F)cc(F)c1NC2=O [Compound 150] | < 100 | < 100 | < 20 | > 1000 | > 10 | –
20 | CN(C(=O)[C@H](CC(F)F)NC(=O)C(F)(F)F)[C@@H](CC1CC1)C(=O)N1C[C@@]2(C[C@H]1C#N)Oc1cc(F)cc(F)c1NC2=O [Compound 86] | 100 to 1000 | < 100 | < 20 | > 1000 | > 10 | –
